{"source": "patent US8697738B2", "about": "“Alpha-aminoamide derivatives useful in the treatment of addictive disorders” (Newron Pharmaceuticals S.p.A., priority 2004, dated 2014)", "key": {"alcohol dependence": {"test_system": "alcohol dependence", "settings": "clinical study; cited from earlier work"}, "cocaine detoxification": {"test_system": "cocaine detoxification", "settings": "rats and human; cited from earlier work"}, "[1]": {"test_system": "cocaine-induced hyperactivity", "assay": "Cocaine interaction study in mice (cocaine-induced locomotion increase)", "format": "in vivo, Swiss-Webster Mice", "settings": "100 mg/kg ip, cocaine 20 mg/kg ip", "source_text": "Typically, psychostimulant addictive drugs as amphetamine and cocaine induce an increase in locomotor activity in rodents and primate. Some compounds with anti-addictive potential properties can prevent the increase in locomotor activity induced by psychostimulant drugs. (Katz J L, Kopajtic T A, Myers K A, Mitkus R J, Chider M, Behavioral effects of cocaine: interactions with D1 dopaminergic antagonists and agonists in mice and squirrel monkeys. J Pharmacol Exp Ther. 1999 October; 291(1):265-79).\nThe effect of test compounds is evaluated in a mice model of cocaine-induced locomotion increase.\nSubjects: Swiss-Webster Mice, Male\nApparatus: Automated Photocell Chambers\nDrugs: Cocaine 20 mg/kg is administered ip, test compounds dissolved in vehicle are administered ip at different doses (10-100 mg/kg) right before cocaine.\nBehavioral test; Animals (8 per experimental group) received ip injection of cocaine (20 mg/kg) or saline and either the test compounds (10-100 mg/kg ip) or their vehicle and locomotor activity is recorded for 1 hour. […]\nMaximal effect: The 30 min time period in which cocaine (20 mg/kg) produces the maximal activity is used to determine test compound effect. […] The AD50 (dose that attenuates cocaine-induced stimulation by 50%) is determined from the linear regression analysis."}, "smoking cessation": {"test_system": "smoking cessation", "settings": "200 mg/day; from 17 to 30%; cited from earlier work"}, "[2]": {"test_system": "patients with idiopathic RLS", "assay": "Open label RLS study, 2 week administration in 10 patients with idiopathic RLS", "format": "in vivo, human", "experimental": "In an open label study conducted on 10 patients with idiopathic RLS, 2 week administration of (S)-(+)-2-[4-(3-Fluorobenzyloxy)-benzylamino]-propanamide 100 mg/die resulted efficacious in improving RLS symptoms. Patients were included in the study if they fulfilled the minimal diagnostic criteria according to the International RLS Study Group. Patients' symptoms had to interfere with sleep onset or maintenance for at least 6 months and at least 15 nights during the last 12 weeks, and they should have IRLS 10(International Restless Legs Syndrome) score equal to or greater than 15 at baseline assessment. Physical examination, biochemical and haematological laboratory tests and electrocardiogram were performed to ensure that selection criteria were fulfilled. Polysomnography was performed for 2 nights at baseline and 2 nights at the end of treatment, in order to verify the effects of (S)-(+)-2-[4-(3-Fluorobenzyloxy)benzylamino]propanamide on sleep. Efficacy was measured through the following evaluation scales: International Restless Legs Syndrome 10 (IRLS 10), Restless Legs Syndrome Quality of Life (RLS QoL), Work Productivity and Activity Impairment Questionnaire (WPAI RLS) and Clinical Global Impression (CGI part I and CGI part II).\nTen out of 10 patients enrolled were considered eligible for the efficacy analysis: ail of them completed the planned period of treatment of 14+3 days. […] As to the main disease, it was considered severe in 70% of patients according to CGI criteria and confirmed by IRLS-10 score, with an impact on daily activity, that could be quantified (according to WPAI-RLS, and RLS-QoLQ results) in about ⅓ of the usual performances."}, "[3]": {"settings": "100 mg/die, 2 weeks, 10 patients"}}, "note": "“Also recorded” adds a separate entry of the source.", "data": [{"smiles": "CC1(C)O[C@@H]2[C@@H](CO[C@@]3(COS(N)(=O)=O)OC(C)(C)O[C@@H]23)O1", "note": "[topiramate]", "values": [{"measurement": "efficacy in the treatment of alcohol dependence", "setting": "alcohol dependence", "result": "efficacious"}]}, {"smiles": "C#CCN(C)[C@H](C)Cc1ccccc1", "note": "[Selegeline, selegiline, reference compound]", "values": [{"measurement": "anti-reinforcing effect during cocaine detoxification", "setting": "cocaine detoxification", "result": "moderate anti-reinforcing effect"}, {"measurement": "effect on cocaine-induced hyperactivity (total locomotor activity)", "setting": "[1]", "result": "did not reverse"}]}, {"smiles": "NCCNC(=O)c1ccc(Cl)cn1", "note": "[lazabemide]", "values": [{"measurement": "percentage of smoking cessation", "setting": "smoking cessation", "result": 30, "unit": "%"}]}, {"smiles": "C[C@H](NCc1ccc(OCc2cccc(F)c2)cc1)C(N)=O", "note": "[(S)-(+)-2-[4-(3-Fluorobenzyloxy)-benzylamino]propanamide]", "values": [{"measurement": "effect on cocaine-induced hyperactivity (total locomotor activity)", "setting": "[1]", "result": "significantly decreased"}, {"measurement": "improvement of RLS symptoms", "setting": "[2]; 100 mg/die, 2 week administration, 10 patients", "result": "efficacious; also recorded: significant improvement"}, {"measurement": "adverse events", "setting": "[2]; [3]", "result": "no adverse events"}, {"measurement": "tolerability", "setting": "[2]; [3]", "result": "well tolerated"}, {"measurement": "CGI part II changes from previous visit: Minimally Improved", "setting": "[2]; Final visit", "result": "5 (50) N (%)"}, {"measurement": "CGI part II changes from previous visit: Much Improved", "setting": "[2]; Final visit", "result": "2 (20) N (%)"}, {"measurement": "CGI part II changes from previous visit: No change", "setting": "[2]; Final visit", "result": "1 (10) N (%)"}, {"measurement": "CGI part II changes from previous visit: Very Much Improved", "setting": "[2]; Final visit", "result": "2 (20) N (%)"}, {"measurement": "IRLS 10 Score, Impact, Mean", "setting": "[2]; Final visit (baseline 4.20)", "result": 3.00}, {"measurement": "IRLS 10 Score, Associate Features, mean", "setting": "[2]; Final visit (baseline 5.10)", "result": 4.30}, {"measurement": "IRLS 10 Score, Severity, mean", "setting": "[2]; Final visit (baseline 7.00)", "result": 6.00}, {"measurement": "IRLS 10 Score, Diagnostic Features, mean", "setting": "[2]; Final visit (baseline 11.20)", "result": 8.50}, {"measurement": "IRLS 10 Score, Total Score, mean", "setting": "[2]; Final visit (baseline 27.50)", "result": 21.80}, {"measurement": "IRLS 10 Score, Diagnostic Features, changes", "setting": "[2]; Final vs Baseline, p 0.002", "result": "−2.70"}, {"measurement": "IRLS 10 Score, Total Score, changes", "setting": "[2]; Final vs Baseline, p 0.002", "result": "−5.70"}, {"measurement": "IRLS 10 Score, Impact, changes", "setting": "[2]; Final vs Baseline, p 0.003", "result": "−1.20"}, {"measurement": "IRLS 10 Score, Severity, changes", "setting": "[2]; Final vs Baseline, p 0.063", "result": "−1.00"}, {"measurement": "IRLS 10 Score, Associate Features, changes", "setting": "[2]; Final vs Baseline, p 0.070", "result": "−0.80"}, {"measurement": "CGI part I: patients with stable disease", "setting": "[2]; after 2 weeks", "result": 40, "unit": "%"}, {"measurement": "CGI part II: patients with improvement of any grading", "setting": "[2]; after 2 weeks", "result": 90, "unit": "%"}, {"measurement": "CGI part II: patients with no changes", "setting": "[2]; after 2 weeks", "result": 10, "unit": "%"}, {"measurement": "WPAI-RLS item 6 impairment of daily activities", "setting": "[2]; after 2 weeks (from 34% at baseline), p=0.005, FIG. 3", "result": 22, "unit": "%"}, {"measurement": "Polysomnographic registration: PLM (Wake+Sleep) Index", "setting": "[2]; after 2 weeks versus baseline, FIG. 4", "result": "statistically significant improvement versus baseline"}, {"measurement": "Polysomnographic registration: PLM Sleep Index", "setting": "[2]; after 2 weeks versus baseline, FIG. 5", "result": "statistically significant improvement versus baseline"}, {"measurement": "Polysomnographic registration: PLM Wake Index", "setting": "[2]; after 2 weeks versus baseline, FIG. 6", "result": "statistically significant improvement versus baseline"}, {"measurement": "RLS-QoLQ total score", "setting": "[2]; after 2 weeks vs baseline, p=0.002, FIG. 2", "result": "significant decrease"}, {"measurement": "CGI part I: patients with improvement in disease situation", "setting": "[2]; after 2 weeks, P=0,031", "result": 60, "unit": "%"}, {"measurement": "IRLS-10 scale total score, result in words", "setting": "[2]; after 2 weeks, p=0.002", "result": "statistically significant improvement"}, {"measurement": "safety profile", "setting": "[2]; conclusion of the trial", "result": "good safety profile"}]}]}
